Source: patent US9695155B2, “Herbicidal substituted pyrimidinyloxy benzene compounds” (E. I. DU PONT DE NEMOURS AND COMPANY, priority 2013, dated 2017)

Tests used:
barnyardgrass [1] = assay: Test A preemergence; assay type: in vivo, Echinochloa crus-galli
Method in brief: (§1)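 Visual injury scored 0–100 (100 = complete control) against untreated controls about 10 days after treatment in a greenhouse. Test chemicals, formulated with surfactant in non-phytotoxic solvent, were sprayed on soil preemergence or on 2-10 cm, one- to two-leaf plants postemergence.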

large (Lg) crabgrass [2] = assay: Test A preemergence; assay type: in vivo, Digitaria sanguinalis
Method in brief: as §1

giant foxtail [3] = assay: Test A preemergence; assay type: in vivo, Setaria faberii
Method in brief: as §1

morningglory [4] = assay: Test A preemergence; assay type: in vivo, Ipomoea spp.
Method in brief: as §1

pigweed [5] = assay: Test A preemergence; assay type: in vivo, Amaranthus retroflexus
Method in brief: as §1

velvetleaf [6] = assay: Test A preemergence; assay type: in vivo, Abutilon theophrasti
Method in brief: as §1

wheat [7] = assay: Test A preemergence; assay type: in vivo, Triticum aestivum
Method in brief: as §1

corn [8] = assay: Test A preemergence; assay type: in vivo, Zea mays
Method in brief: as §1

barnyardgrass [9] = assay: Test A postemergence; assay type: in vivo, Echinochloa crus-galli
Method in brief: as §1

large (Lg) crabgrass [10] = assay: Test A postemergence; assay type: in vivo, Digitaria sanguinalis
Method in brief: as §1

giant foxtail [11] = assay: Test A postemergence; assay type: in vivo, Setaria faberii
Method in brief: as §1

morningglory [12] = assay: Test A postemergence; assay type: in vivo, Ipomoea spp.
Method in brief: as §1

pigweed [13] = assay: Test A postemergence; assay type: in vivo, Amaranthus retroflexus
Method in brief: as §1

velvetleaf [14] = assay: Test A postemergence; assay type: in vivo, Abutilon theophrasti
Method in brief: as §1

wheat [15] = assay: Test A postemergence; assay type: in vivo, Triticum aestivum
Method in brief: as §1

corn [16] = assay: Test A postemergence; assay type: in vivo, Zea mays
Method in brief: as §1

rice = assay: Test B flooded paddy test; assay type: in vivo, Oryza sativa; conditions: Flood, 250 g ai/ha; 0 to 100 scale where 0 is no effect and 100 is complete control
Method in brief: (§2)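 Plants were grown to the 2-leaf stage, then pots were flooded to 3 cm above the soil and compounds were applied directly into the paddy water. That depth was held throughout, and after 13 to 15 days in the greenhouse injury was rated visually against controls on a 0–100 scale (0 no effect, 100 complete control).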

sedge, umbrella = assay: Test B flooded paddy test; assay type: in vivo, Cyperus difformis; conditions: Flood, 250 g ai/ha; 0 to 100 scale where 0 is no effect and 100 is complete control
Method in brief: as §2

Heteranthera limosa = assay: Test B flooded paddy test; assay type: in vivo; conditions: Flood, 250 g ai/ha; 0 to 100 scale where 0 is no effect and 100 is complete control
Method in brief: as §2

barnyardgrass [17] = assay: Test B flooded paddy test; assay type: in vivo, Echinochloa crus-galli; conditions: Flood, 250 g ai/ha; 0 to 100 scale where 0 is no effect and 100 is complete control
Method in brief: as §2

[18] = 500 g ai/ha, 0 to 100 scale where 0 is no effect and 100 is complete control
[19] = 125 g ai/ha, 0 to 100 scale, 0 no effect, 100 complete control
[20] = 125 g ai/ha, 0 to 100 scale where 0 is no effect and 100 is complete control
[21] = 500 g ai/ha, 0 to 100 scale, 0 no effect, 100 complete control, approx. 10 days
[22] = 1000 g ai/ha, 0 to 100 scale, 0 no effect, 100 complete control, approx. 10 days
[23] = 1000 g ai/ha, 0 to 100 scale, 0 no effect, 100 complete control

CCOC(=O)c1cnn(-c2c(C#N)cccc2Oc2ncc(Cl)cn2)c1 [Compound 301]
Barnyardgrass plant response rating (0 to 100 scale, 0 is no effect, 100 is complete control) (barnyardgrass [1]; 125 g ai/ha): 0 | Barnyardgrass plant response rating (barnyardgrass [1]; [18]): 0 | Crabgrass, Large plant response rating (0 to 100 scale) (large (Lg) crabgrass [2]; 125 g ai/ha): 0 | Crabgrass, Large plant response rating (large (Lg) crabgrass [2]; [18]): 0 | Foxtail, Giant plant response rating (0 to 100 scale) (giant foxtail [3]; 125 g ai/ha): 0 | Foxtail, Giant plant response rating (giant foxtail [3]; [18]): 0 | Morningglory plant response rating (0 to 100 scale) (morningglory [4]; 125 g ai/ha): 0 | Morningglory plant response rating (morningglory [4]; [18]): 0 | Pigweed plant response rating (0 to 100 scale) (pigweed [5]; 125 g ai/ha): 0 | Pigweed plant response rating (pigweed [5]; [18]): 0 | Velvetleaf plant response rating (0 to 100 scale) (velvetleaf [6]; 125 g ai/ha): 0 | Velvetleaf plant response rating (velvetleaf [6]; [18]): 0 | Wheat plant response rating (0 to 100 scale) (wheat [7]; 125 g ai/ha): 0 | Wheat plant response rating (wheat [7]; [18]): 0 | Corn plant response rating (0 to 100 scale) (corn [8]; 125 g ai/ha): 0 | Corn plant response rating (corn [8]; [18]): 0 | Plant response rating, Barnyardgrass (barnyardgrass [9]; [19]): 0 | Plant response rating, Barnyardgrass (barnyardgrass [9]; [18]): 0 | Plant response rating, Crabgrass, Large (large (Lg) crabgrass [10]; [19]): 0 | Plant response rating, Crabgrass, Large (large (Lg) crabgrass [10]; [18]): 0 | Plant response rating, Foxtail, Giant (giant foxtail [11]; [19]): 0 | Plant response rating, Foxtail, Giant (giant foxtail [11]; [18]): 0 | Plant response rating, Morningglory (morningglory [12]; [19]): 0 | Plant response rating, Morningglory (morningglory [12]; [18]): 0 | Plant response rating, Pigweed (pigweed [13]; [19]): 0 | Plant response rating, Pigweed (pigweed [13]; [18]): 30 | Plant response rating, Velvetleaf (velvetleaf [14]; [19]): 0 | Plant response rating, Velvetleaf (velvetleaf [14]; [18]): 0 | Plant response rating, Wheat (wheat [15]; [19]): 0 | Plant response rating, Wheat (wheat [15]; [18]): 0 | Plant response rating, Corn (corn [16]; [19]): 0 | Plant response rating, Corn (corn [16]; [18]): 0 | Plant response rating, Rice (rice): 0 | Plant response rating, Sedge, Umbrella (sedge, umbrella): 0 | Plant response rating, Ducksalad (Heteranthera limosa): 0 | Plant response rating, Barnyardgrass (barnyardgrass [17]): 0

CC(=O)c1cccc(Oc2ncc(Cl)cn2)c1-n1cc(Br)cn1 [Compound 96]
Plant response rating, Barnyardgrass (barnyardgrass [1]; [20]): 0 | Barnyardgrass plant response rating (barnyardgrass [1]; [21]): 30 | Plant response rating, Crabgrass, Large (large (Lg) crabgrass [2]; [20]): 30 | Crabgrass, Large plant response rating (large (Lg) crabgrass [2]; [21]): 90 | Plant response rating, Foxtail, Giant (giant foxtail [3]; [20]): 10 | Foxtail, Giant plant response rating (giant foxtail [3]; [21]): 60 | Plant response rating, Morningglory (morningglory [4]; [20]): 0 | Morningglory plant response rating (morningglory [4]; [21]): 0 | Plant response rating, Pigweed (pigweed [5]; [20]): 50 | Pigweed plant response rating (pigweed [5]; [21]): 100 | Plant response rating, Velvetleaf (velvetleaf [6]; [20]): 0 | Plant response rating, Wheat (wheat [7]; [20]): 0 | Plant response rating, Corn (corn [8]; [20]): 0 | Corn plant response rating (corn [8]; [21]): 0 | Plant response rating, Barnyardgrass (barnyardgrass [9]; [20]): 10 | Plant response rating, Barnyardgrass (barnyardgrass [9]; [18]): 30 | Plant response rating, Crabgrass, Large (large (Lg) crabgrass [10]; [20]): 10 | Plant response rating, Crabgrass, Large (large (Lg) crabgrass [10]; [18]): 30 | Plant response rating, Foxtail, Giant (giant foxtail [11]; [20]): 0 | Plant response rating, Foxtail, Giant (giant foxtail [11]; [18]): 20 | Plant response rating, Morningglory (morningglory [12]; [20]): 0 | Plant response rating, Morningglory (morningglory [12]; [18]): 10 | Plant response rating, Pigweed (pigweed [13]; [20]): 10 | Plant response rating, Pigweed (pigweed [13]; [18]): 40 | Plant response rating, Velvetleaf (velvetleaf [14]; [20]): 0 | Plant response rating, Velvetleaf (velvetleaf [14]; [18]): 10 | Plant response rating, Wheat (wheat [15]; [20]): 0 | Plant response rating, Wheat (wheat [15]; [18]): 0 | Plant response rating, Corn (corn [16]; [20]): 0 | Plant response rating, Corn (corn [16]; [18]): 10 | Plant response rating, Rice (rice): 0 | Plant response rating, Sedge, Umbrella (sedge, umbrella): 0 | Plant response rating, Ducksalad (Heteranthera limosa): 0 | Plant response rating, Barnyardgrass (barnyardgrass [17]): 0

C[Si](C)(C)c1cn(-c2ccccc2Oc2ncc(Cl)cn2)nn1 [Compound 297]
Barnyardgrass plant response rating (barnyardgrass [1]; [22]): 10 | Crabgrass, Large plant response rating (large (Lg) crabgrass [2]; [22]): 90 | Foxtail, Giant plant response rating (giant foxtail [3]; [22]): 80 | Morningglory plant response rating (morningglory [4]; [22]): 0 | Pigweed plant response rating (pigweed [5]; [22]): 70 | Velvetleaf plant response rating (velvetleaf [6]; [22]): 50 | Wheat plant response rating (wheat [7]; [22]): 0 | Corn plant response rating (corn [8]; [22]): 0 | Plant response rating, Barnyardgrass (barnyardgrass [9]; [23]): 10 | Plant response rating, Crabgrass, Large (large (Lg) crabgrass [10]; [23]): 30 | Plant response rating, Foxtail, Giant (giant foxtail [11]; [23]): 10 | Plant response rating, Morningglory (morningglory [12]; [23]): 30 | Plant response rating, Pigweed (pigweed [13]; [23]): 70 | Plant response rating, Velvetleaf (velvetleaf [14]; [23]): 60 | Plant response rating, Wheat (wheat [15]; [23]): 0 | Plant response rating, Corn (corn [16]; [23]): 0 | Plant response rating, Rice (rice): 0 | Plant response rating, Sedge, Umbrella (sedge, umbrella): 0 | Plant response rating, Ducksalad (Heteranthera limosa): 0 | Plant response rating, Barnyardgrass (barnyardgrass [17]): 0
